# Data published in patent publication US12077503B2, “Substituted cyclic amides and their use as herbicides” (FMC CORPORATION, priority 2015, dated 2024).
# Key:
# Test in all cases: Test C postemergence
# Assay type in all cases: in vivo
# Details in all cases: scale 0 to 100, 0 no effect, 100 complete control
# [1] = test system: Kochia (Kochia scoparia)
# Method in brief: (§1)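 Scores of 0 to 100 reflect visual comparison with control plants, where 0 means no effect and 100 complete control, made 13 to 15 d after treatment. Application was preemergence to seeds in loam-sand soil or postemergence to plants 2 to 18 cm tall in peat-based mix, using a surfactant-containing solvent formulation.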
# [2] = test system: barnyardgrass (Echinochloa crus-galli)
# Method in brief: as §1
# [3] = test system: crabgrass, large (large crabgrass, Digitaria sanguinalis)
# Method in brief: as §1
# [4] = test system: foxtail, giant (giant foxtail, Setaria faberii)
# Method in brief: as §1
# [5] = test system: morningglory (Ipomoea coccinea)
# Method in brief: as §1
# [6] = test system: nutsedge, yellow (yellow nutsedge, Cyperus esculentus)
# Method in brief: as §1
# [7] = test system: oat, wild (wild oat, Avena fatua)
# Method in brief: as §1
# [8] = test system: pigweed (Amaranthus retroflexus)
# Method in brief: as §1
# [9] = test system: ragweed (common ragweed, Ambrosia elatior)
# Method in brief: as §1
# [10] = test system: ryegrass, Italian (Italian ryegrass, Lolium multiflorum)
# Method in brief: as §1
# [11] = test system: soybean (Glycine max)
# Method in brief: as §1
# [12] = test system: velvetleaf (Abutilon theophrasti)
# Method in brief: as §1
# [13] = test system: waterhemp (common waterhemp, Amaranthus rudis)
# Method in brief: as §1
# [14] = test system: wheat (winter wheat, Triticum aestivum)
# Method in brief: as §1
smiles,measurement,setting,value
"CN1C[C@H](c2ccc(F)c(F)c2)[C@@H](C(=O)Nc2cccc(F)c2F)C1=O [Compound 639, (3S,4S)—N-(2,3-difluorophenyl)-4-(3,4-difluorophenyl)-1-methyl-2-oxo-3-pyrrolidinecarboxamide]","Plant response rating, Kochia",[1]; 31 g ai/ha,40
same,"Plant response rating, Kochia",[1]; 62 g ai/ha,50
same,"Plant response rating, Kochia",[1]; 125 g ai/ha,80
same,"Plant response rating, Kochia",[1]; 250 g ai/ha,85
same,"Plant response rating, Barnyardgrass",[2]; 31 g ai/ha,20
same,"Plant response rating, Barnyardgrass",[2]; 62 g ai/ha,40
same,"Plant response rating, Barnyardgrass",[2]; 125 g ai/ha,70
same,"Plant response rating, Barnyardgrass",[2]; 250 g ai/ha,85
same,"Plant response rating, Crabgrass, Large",[3]; 31 g ai/ha,60
same,"Plant response rating, Crabgrass, Large",[3]; 62 g ai/ha,70
same,"Plant response rating, Crabgrass, Large",[3]; 125 g ai/ha,70
same,"Plant response rating, Crabgrass, Large",[3]; 250 g ai/ha,80
same,"Plant response rating, Foxtail, Giant",[4]; 31 g ai/ha,35
same,"Plant response rating, Foxtail, Giant",[4]; 62 g ai/ha,60
same,"Plant response rating, Foxtail, Giant",[4]; 125 g ai/ha,80
same,"Plant response rating, Foxtail, Giant",[4]; 250 g ai/ha,85
same,"Plant response rating, Morningglory",[5]; 31 g ai/ha,30
same,"Plant response rating, Morningglory",[5]; 62 g ai/ha,25
same,"Plant response rating, Morningglory",[5]; 125 g ai/ha,60
same,"Plant response rating, Morningglory",[5]; 250 g ai/ha,75
same,"Plant response rating, Nutsedge, Yellow",[6]; 31 g ai/ha,0
same,"Plant response rating, Nutsedge, Yellow",[6]; 62 g ai/ha,0
same,"Plant response rating, Nutsedge, Yellow",[6]; 125 g ai/ha,0
same,"Plant response rating, Nutsedge, Yellow",[6]; 250 g ai/ha,10
same,"Plant response rating, Oat, Wild",[7]; 31 g ai/ha,0
same,"Plant response rating, Oat, Wild",[7]; 62 g ai/ha,0
same,"Plant response rating, Oat, Wild",[7]; 125 g ai/ha,0
same,"Plant response rating, Oat, Wild",[7]; 250 g ai/ha,0
same,"Plant response rating, Pigweed",[8]; 31 g ai/ha,10
same,"Plant response rating, Pigweed",[8]; 62 g ai/ha,45
same,"Plant response rating, Pigweed",[8]; 125 g ai/ha,40
same,"Plant response rating, Pigweed",[8]; 250 g ai/ha,45
same,"Plant response rating, Ragweed",[9]; 31 g ai/ha,0
same,"Plant response rating, Ragweed",[9]; 62 g ai/ha,10
same,"Plant response rating, Ragweed",[9]; 125 g ai/ha,50
same,"Plant response rating, Ragweed",[9]; 250 g ai/ha,65
same,"Plant response rating, Ryegrass, Italian",[10]; 31 g ai/ha,0
same,"Plant response rating, Ryegrass, Italian",[10]; 62 g ai/ha,0
same,"Plant response rating, Ryegrass, Italian",[10]; 125 g ai/ha,5
same,"Plant response rating, Ryegrass, Italian",[10]; 250 g ai/ha,10
same,"Plant response rating, Soybean",[11]; 31 g ai/ha,0
same,"Plant response rating, Soybean",[11]; 62 g ai/ha,10
same,"Plant response rating, Soybean",[11]; 125 g ai/ha,15
same,"Plant response rating, Soybean",[11]; 250 g ai/ha,25
same,"Plant response rating, Velvetleaf",[12]; 31 g ai/ha,35
same,"Plant response rating, Velvetleaf",[12]; 62 g ai/ha,60
same,"Plant response rating, Velvetleaf",[12]; 125 g ai/ha,50
same,"Plant response rating, Velvetleaf",[12]; 250 g ai/ha,60
same,"Plant response rating, Waterhemp",[13]; 31 g ai/ha,10
same,"Plant response rating, Waterhemp",[13]; 62 g ai/ha,25
same,"Plant response rating, Waterhemp",[13]; 125 g ai/ha,30
same,"Plant response rating, Waterhemp",[13]; 250 g ai/ha,25
same,"Plant response rating, Wheat",[14]; 31 g ai/ha,0
same,"Plant response rating, Wheat",[14]; 62 g ai/ha,0
same,"Plant response rating, Wheat",[14]; 125 g ai/ha,0
same,"Plant response rating, Wheat",[14]; 250 g ai/ha,0
